# According to US20250325565A1, “ERAVACYCLINE FOR TREATING CANCER” (B. G. NEGEV TECHNOLOGIES AND APPLICATIONS LTD., priority 2022, published 2025):
# pIC50: −log10 of the molar value.
# Assays:
# Assay type in all cases: cell-based, human
# [1] = system: cleaved Poly (ADP-ribose) polymerase 1 (C-PARP1); assay: Western blot of C-PARP1 in BxPC-3 cells; details: BxPC-3, 15 μM, 72 h
# Experimental: Following the three-day incubation of BxPC-3 cells with medium alone as a control or medium containing different concentrations of eravacycline, gemcitabine, or doxorubicin, BxPC-3 cells were harvested and lysed. BxPC-3 cells were briefly lysed with a buffer containing 20 mM HEPES (pH 7.4), 150 mM NaCl, 1 mM EGTA, 1 mM EDTA, 10% glycerol, 1 mM MgCl2, 1% Triton X-100, and 10 μL of protease phosphatase inhibitors per 1 mL buffer. After incubation on ice for 45 min, the lysates were sonicated for 15 min (40% amplitude without pulses) and centrifuged at 12,000×g at 4° C., and the supernatants were collected. The supernatants were analyzed for protein concentration using the Bradford assay. Absorbance was recorded on a microplate reader at 595 nm (Bio-RadiMark Microplate Absorbance reader).
# To evaluate the expression of cell apoptosis-related proteins, cleaved Poly (ADP-ribose) polymerase 1 (C-PARP1) was detected using western blot assays. Actin was used as a control. […] Membranes were incubated for 1 h at room temperature with anti-rabbit secondary antibodies (1:1,000, Sigma-Aldrich). β-actin levels were determined using anti-β-actin (1:10,000, Sigma-Aldrich). Immune complexes were detected with a chemiluminescence reagent (Thermo Fisher Scientific, Pierce ECL Plus Substrate), followed by exposure to Kodak X-ray film (Rochester, NY, USA). […]
# POLK = assay: Western blot of POLK protein expression in BxPC-3 cells; details: BxPC-3, 72 h, increasing concentrations
# BxPC-3 cells = assay: XTT cell proliferation assay, BxPC-3
# Experimental: Human PDAC (AsPC-1, BxPC-3, Panc-1 scr, Panc-1 p53-R273H knock-out (KO) hTERT-HPNE), breast (MCF-7), lung (A549), and colon (HT-29) cancer cell lines were purchased from the American Type Culture Collection (ATCC). The MCF-7, A549, Panc-1 scr, Panc-1 p53 KO and HT-29 cell lines were grown in Dulbecco's Modified Eagle Medium (DMEM; Biological Industries, Beit HaEmek (BI), Israel), and the BxPC-3 and AsPC-1 cell lines were cultured in Roswell Park Memorial Institute-1640 (RPMI-1640; BI, Israel) medium. All media was supplemented with 10% fetal bovine serum (FBS), 200 μM L-glutamine (BI), and 1% penicillin-streptomycin (BI). Cells were cultured at 37° C. in a 5% CO2 humidified incubator.
# Eravacycline dihydrochloride (MedChem Express (MCE)) was dissolved in […] (DDW). Tigecycline (MCE) and omadacycline (MCE) were dissolved in dimethyl sulphoxide (DMSO). All drugs were prepared as 100 mM stock solutions. All cell lines were treated with DMSO as a control (less than 0.1%) or tigecycline, omadacycline, or eravacycline (at the indicated concentrations) for 72 hours. Cell viability and proliferation were determined using the XTT Cell Proliferation Assay Kit (Promega).
# The XTT Cell Proliferation Assay Kit was used to determine cell viability and proliferation. Cells were seeded in 96-well plates at a density of 4,000 cells per well and allowed to attach overnight in a 5% CO2 incubator at 37° C. After overnight incubation, cells were treated with culture medium or in a medium containing tigecycline, omadacycline, or eravacycline at different concentrations (1, 2, 5, 10, 25, and 50 μM) for the indicated time period. Then, 50 μl XTT reaction solution (0.1 ml activation solution+5 ml XTT reagent solution) was added to each well, and the plate was incubated at 37° C. for two hours. After shaking the plate gently to distribute the dye in the wells, the absorbance was measured with a spectrophotometer (Bio-RadiMark Microplate Absorbance reader) at a wavelength of 450 nm and a reference wavelength of 655 nm.
# To evaluate the half maximal inhibitory concentration (IC50) of tetracycline derivatives on five different cell lines (MCF-7, A549, HT-29, BxPC-3, and AsPC-1), the cells were seeded and allowed to attach overnight. All cells were washed with phosphate buffered saline (PBS) and then cultured in fresh media containing the drugs tigecycline, omadacycline, or eravacycline at an increasing concentration (0-50 μM) for 72 h. Inhibition of cell proliferation was determined using the XTT Cell Proliferation Assay Kit.
# To investigate the effect of tetracycline derivatives on cell proliferation in human breast, lung, colon, and PDAC cells, the inventors treated all cell lines (MCF-7, A549, HT-29, BxPC-3, and AsPC-1) with different concentrations of tigecycline, omadacycline, and eravacycline (1, 2, 5, 10, 25, and 50 μM), with medium used as a control, for 72 h. Then, an XTT assay was performed to determine the growth inhibition rate.
structure (smiles),measurement,setting,value
"CN(C)[C@@H]1C(O)=C(C(N)=O)C(=O)[C@@]2(O)C(O)=C3C(=O)c4c(O)c(NC(=O)CN5CCCC5)cc(F)c4C[C@H]3C[C@@H]12 [eravacycline, (4S,4aS,5aR,12aS)-4-(Dimethylamino)-7-fluoro-3,10,12,12a-tetrahydroxy-1,11-dioxo-9-[2-(pyrrolidin-1-yl)acetamido]-1,4,4a,5,5a,6,11,12a-octahydrotetracene-2-carboxamide]",C-PARP1 expression vs control,[1],increased significantly
same,POLK protein expression vs control,POLK,significantly reduced
same,decrease in cell growth,"BxPC-3 cells; BxPC-3, 1 μM, 72 h",27%
same,decrease in cell growth,"BxPC-3 cells; BxPC-3, 10 μM, 72 h",63%
same,decrease in cell growth,"BxPC-3 cells; BxPC-3, 50 μM, 72 h",93%
same,effect on cell survival / viability (in words),"BxPC-3 cells; BxPC-3, 72 h, 1-50 μM",strong and selective viability reduction
same,"suppression of proliferation, up to","BxPC-3 cells; BxPC-3, 72 h, concentration-dependent, 1-50 μM",90-93%
same,cytotoxicity at 25 µM,"BxPC-3 cells; Homo sapiens, BXPC-3, 72 h, read-out: decrease in cell growth / viability, BxPC-3, 25 μM, 72 h",93%
same,pIC50,"BxPC-3 cells; Homo sapiens, BxPC-3, 72 h, XTT, read-out: IC50, inhibition of cell proliferation",5.45
same,decrease in cell growth / viability,"BxPC-3 cells; human, 72 h, 25 μM",90%
